Among the data in US20070170056A1, “Microscale electrochemical cell and methods incorporating the cell” (priority 2006, published 2007) are E1/2 values, retold here.

This data set is classed as physicochemical. To be noted: vs Pt reference electrode; mobile phase 50 mM LiClO4 in 50:50 water/ACN; porous graphitic working electrode. As to the method: A standard phenol mixture (100 μM) was dissolved in (50:50) water/ACN to form a sample solution. Mobile phase A consisted of 50 mM LiClO4 in water, while mobile phase B consisted of 50 mM LiClO4 in ACN; a 50:50 mix was used. The sample solution was introduced into an Eksigent ExpressLC system through a micro-injector (40 nL) and separated on an HPLC column (Eksigent Technologies, 300 μm i.d., 15 cm; 3 μm C18 particles). The eluent from the column was run sequentially through a low-dispersion UV detector (Eksigent Technologies) and then through an electrochemical detection system according to an embodiment of the present invention.
The electrochemical detection system had two independent cells in series, connected by a fused silica capillary.

`Oc1ccc(Cl)cc1Cl` [2,4-dichlorophenol]: the E1/2 was 305 mV.
The value for `Cc1ccc(O)c(C)c1` [2,4-dimethylphenol] was 304 mV; that for `Oc1ccccc1Cl` [2-chlorophenol] was 139 mV.
The value for `Cc1cc(O)ccc1Cl` [4-chloro-3-methylphenol] was 314 mV.
The value for `Oc1ccccc1` [phenol] was 336 mV.
